Results: BindingDB's records for doi:10.1021/acsmedchemlett.7b00140 (Pfizer, 2017)
pEC50: −log10 of the molar value.

Molecular target: Small conductance calcium-activated potassium channel protein 2, KCNN2 (Homo sapiens) (UniProt Q9H2S1)
Experiment: Binding affinity to SK2 (unknown origin)

Chain of Small conductance calcium-activated potassium channel protein 2, KCNN2 (Homo sapiens) (Q9H2S1 whole entry, looked up): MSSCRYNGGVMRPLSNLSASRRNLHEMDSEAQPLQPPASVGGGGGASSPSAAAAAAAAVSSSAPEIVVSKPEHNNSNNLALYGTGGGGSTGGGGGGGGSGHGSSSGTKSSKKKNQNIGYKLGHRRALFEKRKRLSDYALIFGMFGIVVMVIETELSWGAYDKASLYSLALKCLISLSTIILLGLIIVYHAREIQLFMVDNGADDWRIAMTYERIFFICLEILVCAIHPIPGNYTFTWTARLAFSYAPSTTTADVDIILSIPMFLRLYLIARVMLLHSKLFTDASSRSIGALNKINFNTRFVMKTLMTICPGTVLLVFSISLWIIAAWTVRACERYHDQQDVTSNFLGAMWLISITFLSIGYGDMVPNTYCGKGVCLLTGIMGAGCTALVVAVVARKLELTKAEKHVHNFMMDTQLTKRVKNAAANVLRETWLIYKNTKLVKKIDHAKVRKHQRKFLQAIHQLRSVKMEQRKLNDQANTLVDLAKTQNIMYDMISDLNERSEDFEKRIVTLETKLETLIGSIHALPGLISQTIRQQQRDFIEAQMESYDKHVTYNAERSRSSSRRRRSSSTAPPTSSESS

Compound	pEC50
N#Cc1ccc(-c2n[nH]c3cc(OC(F)(F)F)ccc23)cc1	< 5.00
FC(F)(F)c1ccc2c(Nc3ccc(Cl)nc3)n[nH]c2c1	< 5.00
